Reference: patent US7666875B2, “Hydantoin compounds” (Eisai R&D Management Co., Ltd., priority 2005, dated 2010)

target: T1, human T-bet (Homo sapiens, UniProt Q9UL17); assay: HEKT-bet-luc assay (T-bet dependent luciferase reporter in engineered HEK cells); format: cell-based; conditions: Table 3; HEKT-bet cells, compound 24 hours; IC50 normalized to reference ER-213038; read-out: IC50
T1 construct: expressed in transfected cells; host or cells: engineered HEK cells (HEKT-bet)
T1 sequence (Q9UL17 1-535): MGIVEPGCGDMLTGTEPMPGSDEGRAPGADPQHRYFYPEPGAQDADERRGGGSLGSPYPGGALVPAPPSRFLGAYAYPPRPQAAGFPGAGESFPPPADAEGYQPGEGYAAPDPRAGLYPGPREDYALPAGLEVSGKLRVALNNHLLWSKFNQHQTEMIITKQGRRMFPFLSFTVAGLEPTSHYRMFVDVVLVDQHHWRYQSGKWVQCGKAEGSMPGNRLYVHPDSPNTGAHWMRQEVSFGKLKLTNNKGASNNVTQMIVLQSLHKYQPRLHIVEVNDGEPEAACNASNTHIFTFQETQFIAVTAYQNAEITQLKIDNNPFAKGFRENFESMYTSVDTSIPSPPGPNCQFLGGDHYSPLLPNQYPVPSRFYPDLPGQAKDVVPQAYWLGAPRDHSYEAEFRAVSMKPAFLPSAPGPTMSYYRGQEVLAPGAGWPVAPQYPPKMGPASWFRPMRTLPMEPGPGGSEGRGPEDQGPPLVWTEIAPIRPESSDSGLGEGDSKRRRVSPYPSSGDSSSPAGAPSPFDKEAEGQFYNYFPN
Method: HEKT-bet-luc assay: This assay measures a T-bet dependent reporter (luciferase) activity in engineered HEK cells that express a human T-bet and a T-box responsive element driving luciferase reporter. HEKT-bet cells were plated at 2×10^4/well in 96-well plate and compound was added into cell culture for 24 hours. Luciferase activity was measured by adding 50 μl of Steady-Glo reagent (Promega) and samples were read in Victor V reader (PerkinElmer). The IC50 values were calculated utilizing a maximum value corresponding to the amount of luciferase in the absence of a test compound and a minimum value corresponding to a test compound value obtained at maximum inhibition.
Determination of Normalized HEKT-bet IC50 values: Compounds were assayed in microtiter plates. Each plate included a reference compound which was ER-213038. The un-normalized IC50 value for a particular compound was divided by the IC50 value determined for the reference compound in the same microtiter plate to provide a relative potency value. The relative potency value was then multiplied by the established potency of the reference compound to provide the normalized HEKT-bet IC50 value. […] The IC50 values provided herein were obtained using this normalization method.

| Structure (SMILES) | IC50 |
| --- | --- |
| COCCN1C(=O)N(Cc2cccc(OC)c2)C(=O)C12CCN(Cc1cc(F)c(O)c(OC)c1)CC2 [Example 111] | 1550 nM |
| COc1cccc(CN2C(=O)N(CCOCc3ccccc3)C3(CCN(Cc4ccccc4)CC3)C2=O)c1 [Example 112] | 1570 nM |
| COCCN1C(=O)N(Cc2cccc(OC)c2)C(=O)C12CCN(CC(=O)C13CC4CC(CC(C4)C1)C3)CC2 [Example 113] | 1650 nM |
| COCCN1C(=O)N(Cc2cc(C(C)(C)C)cc(C(C)(C)C)c2)C(=O)C12CCN(Cc1ccccc1)CC2 [Example 114] | 1740 nM |
| COCCN1C(=O)N(Cc2cccc(OC)c2)C(=O)C12CCN(Cc1ccc3ccc4cccc5ccc1c3c45)CC2 [Example 115] | 1810 nM |
| COc1cccc(CN2C(=O)N(Cc3ccc(Cl)cc3)C3(CCN(Cc4ccccc4)CC3)C2=O)c1 [Example 116] | 1830 nM |
| COCCN1C(=O)N(CCCCOc2ccccc2)C(=O)C12CCN(Cc1ccccc1)CC2 [Example 117] | 1840 nM |
| COCCN1C(=O)N(Cc2cccc(OC)c2)C(=O)C12CCN(Cc1cc(O)c(OC)c(OC)c1)CC2 [Example 118] | 1880 nM |
| COCCN1C(=O)N(CCOCc2ccccc2)C(=O)C12CCN(Cc1ccccc1)CC2 [Example 119] | 1930 nM |
| COCCN1C(=O)N(Cc2cccc(OC)c2)C(=O)C12CCN(Cc1ccc(-c3cccs3)s1)CC2 [Example 120] | 1990 nM |

same assay, conditions: Table 4; HEKT-bet cells, compound 24 hours; IC50 normalized to reference ER-213038; read-out: IC50

| Structure (SMILES) | IC50 |
| --- | --- |
| COc1cc(CN2CCC3(CC2)C(=O)N(C/C=C/c2ccccc2)C(=O)N3C)cc(OC)c1 [Example 121] | 25 nM |
| COCCN1C(=O)N(Cc2cccc(OC)c2)C(=O)C12CCN(Cc1c(C)ccc3ccccc13)CC2 [Example 123] | 60 nM |
| CCN1C(=O)N(C/C=C/c2ccccc2)C(=O)C12CCN(Cc1cccc(C)c1)CC2 [Example 125] | 68 nM |
| COc1cc(CN2CCC3(CC2)C(=O)N(C/C=C/c2ccccc2)C(=O)N3Cc2cccc(-n3cccc3)c2)cc(OC)c1 [Example 126] | 73 nM |
| COCCN1C(=O)N(Cc2cccc(OC)c2)C(=O)C12CCN(Cc1ccc(C)c3ccccc13)CC2 [Example 127] | 82 nM |
| COCCN1C(=O)N(Cc2cccc(OC)c2)C(=O)C12CCN(Cc1cccc3ccccc13)CC2 [Example 128] | 86 nM |
| COCCN1C(=O)N(Cc2cccc(OC)c2)C(=O)C12CCN(Cc1c(OC)ccc3ccccc13)CC2 [Example 129] | 94 nM |
| COCCN1C(=O)N(C/C=C/c2ccccc2)C(=O)C12CCN(Cc1cccc3ccccc13)CC2 [Example 131] | 100 nM |
| COCCN1C(=O)N(C/C=C/c2ccccc2)C(=O)C12CCN(Cc1cccc(OC)c1)CC2 [Example 132] | 101 nM |
| COCCN1C(=O)N(Cc2cccc(OC)c2)C(=O)C12CCN(Cc1cccc3ccccc13)CC2 [Example 133] | 119 nM |
| COCCN1C(=O)N(Cc2cccc(OC)c2)C(=O)C12CCN(Cc1cccc(C)c1C)CC2 [Example 134] | 120 nM |
| COCCN1C(=O)N(Cc2cccc(OC)c2)C(=O)C12CCN(Cc1ccc3cc(OC)ccc3c1)CC2 [Example 135] | 123 nM |
| COCN1C(=O)N(C/C=C/c2ccccc2)C(=O)C12CCN(Cc1cc(OC)cc(OC)c1)CC2 [Example 136] | 124 nM |
| CCN1C(=O)N(Cc2cccc(OC)c2)C(=O)C12CCN(Cc1cc(OC)cc(OC)c1)CC2 [Example 137] | 124 nM |
| COc1cccc(CN2C(=O)N(Cc3ccncc3)C3(CCN(Cc4cccc5ccccc45)CC3)C2=O)c1 [Example 138] | 125 nM |
| COCCN1C(=O)N(Cc2cccc(OC)c2)C(=O)C12CCN(Cc1cc(C)c(C)cc1C)CC2 [Example 139] | 125 nM |
| COc1cccc(CN2C(=O)N(Cc3ccc(-n4cccn4)cc3)C3(CCN(Cc4cccc5ccccc45)CC3)C2=O)c1 [Example 140] | 127 nM |
| COCCN1C(=O)N(Cc2cccc(OC)c2)C(=O)C12CCN(Cc1c(C)cccc1C)CC2 [Example 141] | 130 nM |
| CCOc1ccc2ccccc2c1CN1CCC2(CC1)C(=O)N(Cc1cccc(OC)c1)C(=O)N2CCOC [Example 142] | 130 nM |
| COc1cc(CN2CCC3(CC2)C(=O)N(C/C=C/c2ccccc2)C(=O)N3Cc2ccccn2)cc(OC)c1 [Example 143] | 134 nM |
| COc1cc(CN2CCC3(CC2)C(=O)N(Cc2cc(OC)cc(OC)c2)C(=O)N3C)cc(OC)c1 [Example 144] | 134 nM |
| COc1cc(CN2CCC3(CC2)C(=O)N(Cc2cc(OC)cc(OC)c2)C(=O)N3Cc2ccncc2)cc(OC)c1 [Example 145] | 139 nM |
| COCCN1C(=O)N(Cc2cccc(OC)c2)C(=O)C12CCN(Cc1cc(OC)cc(OC)c1F)CC2 [Example 146] | 142 nM |
| COCCN1C(=O)N(Cc2cccc(OC)c2)C(=O)C12CCN(Cc1ccc3c4c(cccc14)CC3)CC2 [Example 147] | 142 nM |
| COc1cccc(CN2C(=O)N(C)C3(CCN(Cc4cccc5ccccc45)CC3)C2=O)c1 [Example 148] | 143 nM |
| COCCN1C(=O)N(Cc2cccc(OC)c2)C(=O)C12CCN(Cc1cc(C)ccc1C)CC2 [Example 150] | 147 nM |

| Structure (SMILES) | IC50 |
| --- | --- |
| COCCN1C(=O)N(Cc2ccc3ccccc3c2)C(=O)C12CCN(Cc1cc(OC)cc(OC)c1)CC2 [Example 151] | 148 nM |
| COCCN1C(=O)N(C/C=C/c2cccc3ccccc23)C(=O)C12CCN(Cc1ccccc1)CC2 [Example 152] | 149 nM |
| COCCN1C(=O)N(CCCOc2ccccc2)C(=O)C12CCN(Cc1cccc3ccccc13)CC2 [Example 153] | 151 nM |
| COCN1C(=O)N(Cc2cc(OC)cc(OC)c2)C(=O)C12CCN(Cc1cc(OC)cc(OC)c1)CC2 [Example 154] | 153 nM |
| COc1cccc(CN2C(=O)N(Cc3ccc(-n4cccn4)cc3)C3(CCN(Cc4cc(OC)cc(OC)c4)CC3)C2=O)c1 [Example 155] | 159 nM |
| COCCN1C(=O)N(Cc2cccc(OC)c2)C(=O)C12CCN(Cc1cccc(-c3ccc(O)cc3)c1)CC2 [Example 156] | 159 nM |
| COCCN1C(=O)N(Cc2cccc(OC)c2)C(=O)C12CCN(Cc1cc3ccccc3c3ccccc13)CC2 [Example 157] | 161 nM |
| CCc1ccccc1CN1CCC2(CC1)C(=O)N(Cc1cccc(OC)c1)C(=O)N2CCOC [Example 158] | 164 nM |
| COCCN1C(=O)N(Cc2cccc(OC)c2)C(=O)C12CCN(Cc1cccc(Br)c1)CC2 [Example 159] | 166 nM |
| COCCN1C(=O)N(Cc2cccc(OC)c2)C(=O)C12CCN(Cc1c3ccccc3cc3ccccc13)CC2 [Example 160] | 168 nM |
| COCCN1C(=O)N(Cc2cccc(OC)c2)C(=O)C12CCN(Cc1ccc3ccccc3c1)CC2 [Example 161] | 169 nM |
| COCCN1C(=O)N(Cc2ccc3ccccc3c2)C(=O)C12CCN(Cc1cccc(C)c1)CC2 [Example 162] | 172 nM |
| COCCN1C(=O)N(Cc2cccc(F)c2)C(=O)C12CCN(Cc1cc(OC)cc(OC)c1)CC2 [Example 163] | 182 nM |
| COCCN1C(=O)N(Cc2cccc(OC)c2)C(=O)C12CCN(Cc1c(C)c(C)c(C)c(C)c1C)CC2 [Example 164] | 182 nM |
| COCCN1C(=O)N(C/C=C/c2ccccc2F)C(=O)C12CCN(Cc1ccccc1)CC2 [Example 165] | 183 nM |
| COCCN1C(=O)N(Cc2ccc3ccccc3c2)C(=O)C12CCN(Cc1cccc(OC)c1)CC2 [Example 166] | 184 nM |
| CCN1C(=O)N(Cc2cccc(OC)c2)C(=O)C12CCN(Cc1cc(OC)cc(OC)c1)CC2 [Example 167] | 187 nM |
| CCN1C(=O)N(Cc2cccc(OC)c2)C(=O)C12CCN(Cc1cccc3ccccc13)CC2 [Example 168] | 190 nM |
| COCCN1C(=O)N(Cc2cccc(OC)c2)C(=O)C12CCN(Cc1cccc3c1Cc1ccccc1-3)CC2 [Example 169] | 190 nM |
| COCCN1C(=O)N(C/C=C/c2ccccc2)C(=O)C12CCN(Cc1ccccc1)CC2 [Example 171] | 191 nM |
| COCCN1C(=O)N(Cc2cccc(OC)c2)C(=O)C12CCN(Cc1csc3ccccc13)CC2 [Example 172] | 193 nM |
| COc1cccc(CN2C(=O)N(Cc3cccnc3)C3(CCN(Cc4cccc5ccccc45)CC3)C2=O)c1 [Example 173] | 196 nM |
| COc1cccc(CN2CCC3(CC2)NC(=O)N(C/C=C/c2ccccc2)C3=O)c1 [Example 174] | 198 nM |
| COCCN1C(=O)N(Cc2cccc(OC)c2)C(=O)C12CCN(Cc1c3ccccc3c(C)c3ccccc13)CC2 [Example 175] | 200 nM |
| COCCN1C(=O)N(Cc2cccc(OC)c2)C(=O)C12CCN(Cc1cccc(N3CCCC3)c1)CC2 [Example 176] | 203 nM |

same assay, conditions: reference compound used for normalization on each microtiter plate; read-out: established potency of the reference compound (HEKT-bet IC50)

| Structure (SMILES) | IC50 |
| --- | --- |
| COCCN1C(=O)N(Cc2cccc(OC)c2)C(=O)C12CCN(Cc1cccc(OC)c1)CC2 [Example 170] | 190 nM |
